{"source": "patent US20240165056A1", "about": "“USE OF TAMOXIFEN AND RELATED COMPOUNDS TO REDUCE BREAST IMPLANT CAPSULE FORMATION AND CAPSULAR CONTRACTURE” (Ohio State Innovation Foundation, priority 2021, published 2024)", "assay_type_in_all_cases": "in vivo, mice", "key": {"[1]": {"test": "Mouse body weight during tamoxifen treatment in silicone implant model", "conditions": "75 mg/kg tamoxifen citrate i.p. daily", "method": "(§1) Eight-week-old C57BL/6 or Beige (C57BL/6J-Lyst^bg-J/J) female mice (Jackson Labs, Bar Harbor, ME, USA) (N=10/group) were treated with daily tamoxifen or vehicle injections into the intraperitoneal cavity 1 week before surgery. Tamoxifen injections consisted of 75 mg/kg tamoxifen citrate (Sigma, St. Louis MO, USA) in peanut oil (Sigma, St Louis MO, USA) with 10% ethanol (Sigma, St. Louis MO, USA) to promote dissolution of tamoxifen, while control injections consisted of only peanut oil and ethanol. Daily injections continued until the day of explantation, two weeks after implantation.\n(§2) Mice were anesthetized with a standard ketamine/xylazine cocktail. Fur was clipped and skin was prepped with betadine followed by alcohol pads. Silicone prostheses were implanted in the submammary plane, bilaterally, giving a total of 20 implants per experimental group (FIG. 1B). Skin incisions were re-approximated with 6-0 nylon suture (FIG. 1C).\n(§3) After 2 weeks, mice were euthanized and the silicone prostheses were removed en bloc with all surrounding tissue, including the overlying skin for orientation (FIG. 1D). […] These samples were excluded from further analysis owing to the potential confounding nature of bacterial contamination on capsule formation.\n(§4) All statistical analysis was performed in Prism 8.0 (GraphPad, San Diego, CA, USA). Data was evaluated for outliers using the Grubb's test. Control and tamoxifen-treated groups were compared with unpaired t-tests, except in cases where the equal variance assumption was violated; when the nonparametric Mann-Whitney test was utilized. A p-value of 0.05 was considered significant."}, "[2]": {"test_system": "fibrous capsule around silicone implants", "test": "Silicone breast implant capsule formation in mouse model (H&E, Picro-Sirius Red histology)", "method": "as §1, §2, §3\nExplanted silicone pieces and surrounding capsules were fixed overnight in formaldehyde at 4° C. and transitioned to 70% ethanol. Samples were then paraffin embedded and sectioned at 4 μm. Samples were stained with H&E (FIG. 1E) or Picro-Sirius Red. Immunohistochemistry sections were deparaffinized, rehydrated and blocked for endogenous peroxidase activity (3% H2O2 in H2O) and nonspecific background staining (3% normal goat serum in Background Sniper, BioCare Medical, CA, USA). Antigen retrieval was performed with citrate buffer (pH 6.0) or Tris-EDTA (pH 9.0) in a pressure cooker for 10 minutes and slides were incubated for 30 minutes at room temperature with primary antibodies. Primary antibodies (all from Abcam, Cambridge, UK) included α-SMA (ab124964), CD31 (ab28364), CD68 (ab125212), iNOS (ab15323), CD163 (ab182422), Ki67 (ab15580), ER-α (ab271827), and ER-β (ab3576). Primary antibody binding was detected by subsequent incubation with species appropriate biotinylated IgG (Vector Laboratories, CA, USA), followed by streptavidin-horse radish peroxidase (Vector Laboratories, CA, USA) and chromogenic development with 3,3-diaminobenzidine (Vector Laboratories, CA, USA). Tissue sections were counterstained with Gill's hematoxylin (Vector Laboratories, CA, USA), slides were dehydrated and a cover slip was placed. Slides were imaged on a Zeiss Axio Observer Z1 inverted microscope (Zeiss, Germany) and quantified using ImageJ (NIH, USA).\nHistology was quantified from H&E slides within the fibrous capsule on the side oriented with overlying skin to maintain consistency and remove potential variability by dissection at explantation.\nas §4"}, "[3]": {"test_system": "Estrogen receptor α (ER-α)", "test": "Immunohistochemistry of implant capsule: ER-α", "conditions": "75 mg/kg i.p. daily; explant at 2 weeks", "method": "as §1\n(§5) Mice were anesthetized with a standard ketamine/xylazine cocktail. […]\n(§6) Explanted silicone pieces and surrounding capsules were fixed overnight in formaldehyde at 4° C. and transitioned to 70% ethanol. […] Primary antibody binding was detected by subsequent incubation with species appropriate biotinylated IgG (Vector Laboratories, CA, USA), followed by streptavidin-horse radish peroxidase (Vector Laboratories, CA, USA) and chromogenic development with 3,3-diaminobenzidine (Vector Laboratories, CA, USA). […] Slides were imaged on a Zeiss Axio Observer Z1 inverted microscope (Zeiss, Germany) and quantified using ImageJ (NIH, USA). […]\n(§7) All statistical analysis was performed in Prism 8.0 (GraphPad, San Diego, CA, USA). Data was evaluated for outliers using the Grubb's test. […]"}, "[4]": {"test_system": "estrogen receptor β (ER-β)", "test": "Immunohistochemistry of implant capsule: ER-β", "conditions": "75 mg/kg i.p. daily; explant at 2 weeks", "method": "as §1, §5, §6, §7"}, "Ki-67": {"test_system": "Ki-67", "test": "Immunohistochemistry of implant capsule: Ki-67 cellular proliferation", "conditions": "75 mg/kg i.p. daily; explant at 2 weeks", "method": "as §1, §5, §6, §7"}, "[5]": {"test_system": "Alpha smooth muscle actin (αSMA)", "test": "Immunohistochemistry of implant capsule: αSMA myofibroblasts", "conditions": "75 mg/kg i.p. daily; explant at 2 weeks", "method": "as §1, §5, §6, §7"}, "CD31": {"test_system": "CD31", "test": "Immunohistochemistry of implant capsule: CD31 neovascularization", "conditions": "75 mg/kg i.p. daily; explant at 2 weeks", "method": "as §1, §5, §6, §7"}, "CD68": {"test_system": "CD68", "test": "Immunohistochemistry of implant capsule: CD68 macrophage infiltration", "conditions": "75 mg/kg i.p. daily; explant at 2 weeks", "method": "as §1, §5, §6, §7"}, "iNOS": {"test_system": "iNOS", "test": "Immunohistochemistry of implant capsule: iNOS pro-inflammatory macrophages", "conditions": "75 mg/kg i.p. daily; explant at 2 weeks", "method": "as §1, §5, §6, §7"}, "CD163": {"test_system": "CD163", "test": "Immunohistochemistry of implant capsule: CD163 anti-inflammatory macrophages", "conditions": "75 mg/kg i.p. daily; explant at 2 weeks", "method": "as §1, §5, §6, §7"}, "[6]": {"conditions": "Picro-Sirius Red, 75 mg/kg i.p. daily, explant at 2 weeks"}}, "data": [{"smiles": "CC/C(=C(\\c1ccccc1)c1ccc(OCCN(C)C)cc1)c1ccccc1", "note": "[tamoxifen]", "values": [{"measurement": "body weight at the date of surgery", "setting": "[1]; one week after start of injections", "value": "16.2±1.6", "unit": "gram body weight"}, {"measurement": "body weight at the start of the injection period", "setting": "[1]; start of injections, 1 week before surgery", "value": "17.6±1.2", "unit": "gram body weight"}, {"measurement": "body weight at the two-week explant date", "setting": "[1]; two weeks after implantation", "value": "16.6±1.0", "unit": "gram body weight"}, {"measurement": "cellularity of the capsules", "setting": "[2]; 75 mg/kg i.p. daily, explant at 2 weeks", "value": "3624±608", "unit": "cells/mm^2"}, {"measurement": "capsule thickness", "setting": "[2]; 75 mg/kg tamoxifen citrate i.p. daily, explant 2 weeks after implantation", "value": "132±49", "unit": "μm"}, {"measurement": "area percent of collagen", "setting": "[2]; [6]", "value": "36.2±3.1", "unit": "%"}, {"measurement": "total collagen surrounding the implants", "setting": "[2]; [6]", "value": "43598±10044", "unit": "μm^2"}, {"measurement": "reduction in capsule thickness", "setting": "[2]; tamoxifen-treated vs control, explant at 2 weeks", "value": 59, "unit": "%"}, {"measurement": "ER-α expression as a fraction of total cells", "setting": "[3]", "value": "31.0±6.3", "unit": "%"}, {"measurement": "ER-α total cells/mm of capsular tissue", "setting": "[3]", "value": "107.0±39.8", "unit": "cells/mm"}, {"measurement": "ER-β expression, cellular fraction", "setting": "[4]", "value": "36.8±7.5", "unit": "%"}, {"measurement": "ER-β total cells/mm", "setting": "[4]", "value": "106.2±69.2", "unit": "cells/mm"}, {"measurement": "Ki-67+ cells/mm", "setting": "Ki-67", "value": "324±125", "unit": "cells/mm"}, {"measurement": "cellular fraction of Ki-67+ cells", "setting": "Ki-67", "value": "62.4±16.9", "unit": "%"}, {"measurement": "linear density of αSMA+ cells", "setting": "[5]", "value": "295±121", "unit": "cells/mm"}, {"measurement": "percentage of total cells αSMA+", "setting": "[5]", "value": "47.9±9.5", "unit": "%"}, {"measurement": "CD31+ vessels per mm^2", "setting": "CD31", "value": "106.3±51.8", "unit": "vessels/mm^2"}, {"measurement": "total CD31+ vessels", "setting": "CD31", "value": "15.9±9.7", "unit": "vessels/mm"}, {"measurement": "cellular fraction of CD68", "setting": "CD68", "value": "55.9±16.0", "unit": "%"}, {"measurement": "linear density of CD68+ cells", "setting": "CD68", "value": "303.3±136.5", "unit": "cells/mm"}, {"measurement": "cellular fraction of iNOS", "setting": "iNOS", "value": "60.6±12.6", "unit": "%"}, {"measurement": "total number of cells with positivity for iNOS", "setting": "iNOS", "value": "290.6±104.2", "unit": "cells/mm"}, {"measurement": "cellular fraction of CD163", "setting": "CD163", "value": "29.1±8.4", "unit": "%"}, {"measurement": "total number of cells with positivity for CD163", "setting": "CD163", "value": "94.1±45.9", "unit": "cells/mm"}]}]}
